Legend:
[1] = system: NC59 human colon tumor cell line; test: XTT cell viability (antitumoral activity), NC59; type: cell-based; conditions: incubation time (4 h or 60 h) not stated, read-out: CI50 (μM) colon NC59
Description: (§1) The antitumor activity of inventive compounds was evaluated measuring cell metabolic capacity (viability), using the XTT kit and following the recommendations of the manufacturer (Roche Diagnostics). The assays were carried out a minimum of five times, with controls containing unexposed cells, cells with vehicle, or media plus compound. Cells were seeded into 96-well plates in 100 μl of media and incubated for 24 h. Afterwards, the inventive compounds were added at different combination of concentrations (from 1 μM to 80 μM) for 4 h (short time XTT) or 60 h (long time XTT). At the end of the incubation period, 50 μl of a mixture containing XTT and electron coupling reagent to each well were added. After 4 h of incubation at 37° C. the absorbance at 490 nm was noted. The growth inhibitory activity of each compound, was obtained subtracting the absorbance of the blanks and expressed as percentage of cell growth inhibition, as compared with untreated controls. The inhibitory concentration 50 (IC50) was determined from the dose-response curves of compound concentration versus percentage of cell viability with the Hill sigmoidal equation (three parameters), using Sigmaplot 5.0 software.

[2] = system: HCA7 human colon tumor cell line; test: XTT cell viability (antitumoral activity), HCA7; type: cell-based; conditions: HCA-7, incubation time (4 h or 60 h) not stated, read-out: CI50 (μM) colon HCA7
Description: as §1

[3] = system: HT29 human colon tumor cell line; test: XTT cell viability (antitumoral activity), HT29; type: cell-based; conditions: HT-29, incubation time (4 h or 60 h) not stated, read-out: CI50 (μM) colon HT29
Description: as §1

[4] = system: PC3 human prostata tumor cell line; test: XTT cell viability (antitumoral activity), PC3; type: cell-based; conditions: incubation time (4 h or 60 h) not stated, read-out: CI50 (μM) prostata PC3
Description: as §1

[5] = molecular target: COX-1 (Homo sapiens, UniProt P23219); test: Inhibition of enzyme COX-1; type: biochemical
[6] = molecular target: T1, COX-2 (Homo sapiens, UniProt P35354); test: Inhibition of enzyme COX-2; type: biochemical
T1 sequence (P35354 18-604): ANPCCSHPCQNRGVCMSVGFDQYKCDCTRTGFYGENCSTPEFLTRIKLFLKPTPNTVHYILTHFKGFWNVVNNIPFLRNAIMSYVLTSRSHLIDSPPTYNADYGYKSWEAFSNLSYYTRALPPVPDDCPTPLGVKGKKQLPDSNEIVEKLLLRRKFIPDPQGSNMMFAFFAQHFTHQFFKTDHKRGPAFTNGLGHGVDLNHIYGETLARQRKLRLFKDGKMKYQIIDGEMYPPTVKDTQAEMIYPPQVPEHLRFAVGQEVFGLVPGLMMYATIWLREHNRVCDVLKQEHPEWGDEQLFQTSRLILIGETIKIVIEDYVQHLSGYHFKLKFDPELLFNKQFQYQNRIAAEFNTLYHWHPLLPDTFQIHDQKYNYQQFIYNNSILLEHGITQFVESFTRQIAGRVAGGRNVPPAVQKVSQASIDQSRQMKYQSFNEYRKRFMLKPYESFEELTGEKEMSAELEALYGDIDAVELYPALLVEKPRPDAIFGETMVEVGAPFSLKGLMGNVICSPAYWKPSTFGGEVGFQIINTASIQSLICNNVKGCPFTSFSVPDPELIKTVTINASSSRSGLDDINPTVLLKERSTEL

Sequence of COX-1 (P23219 24-599): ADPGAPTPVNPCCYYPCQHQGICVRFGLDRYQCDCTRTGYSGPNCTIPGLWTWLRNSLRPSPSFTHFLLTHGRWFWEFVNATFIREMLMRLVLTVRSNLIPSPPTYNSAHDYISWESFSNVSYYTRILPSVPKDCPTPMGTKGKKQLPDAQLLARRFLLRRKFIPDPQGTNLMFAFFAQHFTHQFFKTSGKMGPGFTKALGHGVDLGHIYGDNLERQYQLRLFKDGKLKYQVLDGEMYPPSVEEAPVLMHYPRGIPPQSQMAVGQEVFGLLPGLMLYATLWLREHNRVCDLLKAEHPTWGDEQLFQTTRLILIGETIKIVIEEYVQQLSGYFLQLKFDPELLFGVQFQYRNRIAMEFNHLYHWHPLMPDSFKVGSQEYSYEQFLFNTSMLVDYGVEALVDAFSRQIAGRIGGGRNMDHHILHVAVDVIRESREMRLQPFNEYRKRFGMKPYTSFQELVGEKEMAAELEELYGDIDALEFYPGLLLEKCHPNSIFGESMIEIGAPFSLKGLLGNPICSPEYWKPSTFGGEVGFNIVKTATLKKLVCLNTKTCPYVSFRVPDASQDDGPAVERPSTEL

Structure (SMILES)	IC50 [1] [µM]	IC50 [2] [µM]	IC50 [3] [µM]	IC50 [4] [µM]	inhibiting activity of enzyme COX-1 [5]	inhibiting activity of enzyme COX-2 [6]	melting point [°C]
Cc1ccc(-c2cc(C(F)(F)F)nn2-c2ccc(S(N)(=O)=O)cc2)cc1 [Celecoxib, reference compound]	18.2	26.5	21.5	30.6			
Cc1ccc(C)c(C2CC(C(F)(F)F)=NN2c2ccc(S(N)(=O)=O)cc2)c1 (stereo not drawn) [Example 1, 4-[5-(2,5-dimethyl-phenyl)-3-trifluoromethyl-4,5-dihydro-pyrazol-1-yl]-benzenesulfonamide]	16.3	10.5	14.9	12.3	do not display any inhibiting activity	do not display any inhibiting activity	200 to 202
NS(=O)(=O)c1ccc(N2N=C(C(F)(F)F)CC2c2cc(C(F)(F)F)cc(C(F)(F)F)c2)cc1 (stereo not drawn) [Example 2, 4-[5-(3,5-bis-trifluoromethyl-phenyl)-3-trifluoromethyl-4,5-dihydro-pyrazol-1-yl]-benzenesulfonamide]				10.6	do not display any inhibiting activity	do not display any inhibiting activity	195 to 197

From patent US20050182119A1, “Substituted pyrazoline derivatives” (priority 2004, published 2005)
